The record followed here is ChEMBL document CHEMBL1144290, “Discovery and structure-activity relationships of novel selective norepinephrine and dual serotonin/norepinephrine reuptake inhibitors” (Bioorg Med Chem Lett, 2005).

Assay [1] has as its target Sodium-dependent dopamine transporter (Homo sapiens) (UniProt Q01959). Briefly: Displacement of dopamine by the compound against dopamine transporter was determined at 1000 nM.
The nature of assay [2]: Inhibitory constant against Serotonin transporter.
Assay [3] in a line: Inhibitory constant determined against Norepinephrine transporter.
Assay [4] addresses Sodium-dependent serotonin transporter (Homo sapiens) (UniProt P31645). Put plainly: Displacement of serotonin by the compound against serotonin transporter was determined.
Assay [5] can be described thus: Inhibitory constant against Dopamine transporter.

Sodium-dependent dopamine transporter (Homo sapiens), sequence (Q01959 whole entry): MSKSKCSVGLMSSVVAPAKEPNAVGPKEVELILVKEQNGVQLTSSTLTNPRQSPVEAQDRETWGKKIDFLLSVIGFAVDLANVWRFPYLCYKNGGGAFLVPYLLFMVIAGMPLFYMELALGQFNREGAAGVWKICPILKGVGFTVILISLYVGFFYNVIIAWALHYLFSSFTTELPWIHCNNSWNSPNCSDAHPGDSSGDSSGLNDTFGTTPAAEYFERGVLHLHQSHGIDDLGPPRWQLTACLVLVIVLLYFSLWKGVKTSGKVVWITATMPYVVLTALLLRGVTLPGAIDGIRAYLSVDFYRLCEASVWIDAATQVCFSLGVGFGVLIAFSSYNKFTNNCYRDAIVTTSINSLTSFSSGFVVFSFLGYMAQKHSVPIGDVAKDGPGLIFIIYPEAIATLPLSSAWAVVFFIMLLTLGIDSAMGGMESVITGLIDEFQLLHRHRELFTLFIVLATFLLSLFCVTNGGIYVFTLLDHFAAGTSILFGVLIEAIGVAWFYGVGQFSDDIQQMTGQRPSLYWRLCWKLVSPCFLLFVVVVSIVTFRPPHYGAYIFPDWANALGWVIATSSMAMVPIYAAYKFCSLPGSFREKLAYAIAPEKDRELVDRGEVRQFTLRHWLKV
Sodium-dependent serotonin transporter (Homo sapiens), sequence (P31645 whole entry, looked up): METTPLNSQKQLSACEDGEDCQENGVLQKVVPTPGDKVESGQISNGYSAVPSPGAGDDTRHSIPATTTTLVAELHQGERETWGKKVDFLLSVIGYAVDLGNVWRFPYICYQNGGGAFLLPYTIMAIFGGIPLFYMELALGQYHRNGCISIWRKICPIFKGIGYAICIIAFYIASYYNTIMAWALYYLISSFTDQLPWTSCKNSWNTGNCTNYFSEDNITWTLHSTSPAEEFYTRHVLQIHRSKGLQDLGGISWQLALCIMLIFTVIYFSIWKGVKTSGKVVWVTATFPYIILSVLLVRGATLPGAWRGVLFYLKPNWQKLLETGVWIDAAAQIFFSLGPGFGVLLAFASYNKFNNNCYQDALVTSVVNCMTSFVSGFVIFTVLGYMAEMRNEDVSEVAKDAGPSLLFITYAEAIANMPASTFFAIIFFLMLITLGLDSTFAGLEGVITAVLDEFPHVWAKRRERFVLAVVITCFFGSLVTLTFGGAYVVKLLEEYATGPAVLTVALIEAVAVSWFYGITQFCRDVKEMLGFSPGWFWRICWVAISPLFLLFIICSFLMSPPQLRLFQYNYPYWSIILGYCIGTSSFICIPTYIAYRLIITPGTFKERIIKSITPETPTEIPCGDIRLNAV

As a reminder, the Ki is the dissociation constant of the complex between target and ligand, obtained from inhibition or displacement. As for `Cc1cccc(S[C@@H](c2ccccc2)[C@@H]2CNCCO2)c1`, the Ki in assay [1] was above 200 nM; in assay [2] it was 3.2 nM; in assay [3], 109 nM.
`COc1ccccc1S[C@@H](c1ccccc1)[C@@H]1CNCCO1` (stereo in doubt; form 1) [listing 1 of 2 here]: the figures for the inhibitory constant (Ki) in assay [2] and in assay [3] were 66.2 nM and 1.7 nM, respectively.
In the case of `CCOc1ccccc1O[C@@H](c1ccccc1)[C@@H]1CNCCO1`, the Ki in assay [1] was above 200 nM; in assay [4] it was above 100 nM.
As to `Cc1ccc(S[C@@H](c2ccccc2)[C@@H]2CNCCO2)cc1`, the values for the inhibition constant (Ki) in assay [1], in assay [4] and in assay [3] were above 200 nM, above 100 nM and 364 nM, respectively.
As for `COc1ccccc1S[C@@H](c1ccccc1)[C@@H]1CNCCO1` (stereo in doubt; form 2) [listing 1 of 2 here], the Ki in assay [2] worked out at 1.5 nM; in assay [3], 24.6 nM.
As for `COc1ccccc1S[C@@H](c1ccccc1)[C@@H]1CNCCO1` (stereo in doubt; 14) [listing 1 of 2 here], the Ki in assay [1] was above 200 nM.
With `Cc1ccccc1S[C@@H](c1ccccc1)[C@@H]1CNCCO1`, the Ki came to 227 nM in assay [5], 0.2 nM in assay [2] and 8.3 nM in assay [3].
The corresponding values for `c1ccc(S[C@@H](c2ccccc2)[C@@H]2CNCCO2)cc1` are 522 nM, 36 nM and 17.6 nM.
In the case of `COc1ccccc1S[C@@H](c1ccccc1)[C@@H]1CNCCO1` (stereo in doubt; 14) [listing 2 of 2 here], the Ki in assay [2] was determined as 1.2 nM; in assay [3], 10.7 nM.
For the compound `COc1ccccc1S[C@@H](c1ccccc1)[C@@H]1CNCCO1` (stereo in doubt; form 2) [listing 2 of 2 here], the inhibition constant Ki in assay [1] is above 200 nM.
The same measure, in the same setting: the figure for `COc1ccccc1S[C@@H](c1ccccc1)[C@@H]1CNCCO1` (stereo in doubt; form 1) [listing 2 of 2 here] is above 200 nM.
